Assay results from PubChem BioAssay AID192 (DTP/NCI, 2004).
Where “and” joins values, the source holds several entries; their conditions need not be identical. Identical values can stand only once. Inconclusive results and toxic doses are left out. Rule for the calls: active = survival T/C of 150% or more; inactive = T/C below 125% in these data. Numbered stars: 1 amine (or outer) side, 2 acyl side, 3 side chain; on linkers, the order of the positions; unused ones are H or OH. Bridge positions count the residues as written; N and C are the ends. Square brackets hold non-standard residues; d marks the D form. Peptide text beside a SMILES is read from it. I, II: the chains in the order shown. Actinocin(1to9) = Cc1c2oc3c(C)ccc(C(=O)[*:2])c3nc-2c(C(=O)[*:1])c(N)c1=O; NMeV = CN[CH](C(=O)O)C(C)C; Sar = CNCC(=O)O

Test system: BDF1 mice, B16 melanoma ip, median survival T/C
Assay: NCI In Vivo Anticancer Drug Screen. Data for tumor model B16 Melanoma (intraperitoneal) in B6D2F1 (BDF1) mice
Conditions: endpoint: median survival time, higher = longer survival
How it was run: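 Antitumor activity is assessed in mice bearing a transplanted tumor, with survival or tumor size compared against vehicle-dosed controls and expressed as T/C.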

[1] = dose: 100.0 mg/kg/injection, schedule: Q01DX009 (ip), vehicle: Klucel (hydroxypropylcellulose) (HPC)
[2] = dose: 200.0 mg/kg/injection, schedule: Q01DX009 (ip), vehicle: Klucel (hydroxypropylcellulose) (HPC)
[3] = dose: 400.0 mg/kg/injection, schedule: Q01DX009 (ip), vehicle: Klucel (hydroxypropylcellulose) (HPC)
[4] = dose: 12.5 mg/kg/injection, schedule: Q01DX009 (ip), vehicle: saline with Tween-80
[5] = dose: 50.0 mg/kg/injection, schedule: Q01DX009 (ip), vehicle: saline with Tween-80
[6] = dose: 100.0 mg/kg/injection, schedule: Q01DX009 (ip), vehicle: saline with Tween-80
[7] = dose: 200.0 mg/kg/injection, schedule: Q01DX009 (ip), vehicle: saline with Tween-80
[8] = dose: 200.0 mg/kg/injection, schedule: Q01DX009 (ip), vehicle: saline
[9] = dose: 25.0 mg/kg/injection, schedule: Q01DX009 (ip), vehicle: saline with Tween-80
[10] = dose: 25.0 mg/kg/injection, schedule: Q01DX009 (ip), vehicle: saline
[11] = dose: 50.0 mg/kg/injection, schedule: Q01DX009 (ip), vehicle: saline
[12] = dose: 25.0 mg/kg/injection, schedule: Q01DX009 (ip), vehicle: Klucel (hydroxypropylcellulose) (HPC)
[13] = dose: 50.0 mg/kg/injection, schedule: Q01DX009 (ip), vehicle: Klucel (hydroxypropylcellulose) (HPC)
[14] = dose: 50.0 mg/kg/injection, schedule: Q01DX009 (ip), vehicle: water
[15] = dose: 100.0 mg/kg/injection, schedule: Q01DX009 (ip), vehicle: water

Measured: T/C

CCCCCCCCCCCCCCCCN(C(=S)c1ccccc1)c1ccccc1
inactive: [1] 94 % of control | [2] 95 % of control | [3] 97 % of control

CC(C)CCOC(=O)C(O)c1ccccc1 (stereo unspecified)
inactive: [1] 87 % of control | [2] 93 % of control | [3] 87 % of control

CC(C)N1C(=O)C=C(c2ccc([N+](=O)[O-])cc2)C1=O
inactive: [4] 95 % of control | [5] 99 % of control

N=N/C(=C\c1c(O)[nH]c2ccccc12)c1ccccc1
inactive: [5] 98 % of control | [6] 105 % of control | [7] 98 % of control | dose: 400.0 mg/kg/injection, schedule: Q01DX009 (ip), vehicle: saline with Tween-80 89 % of control

C[C@@]12C(=O)OC(=O)[C@]1(C)[C@H]1CC[C@@H]2O1
inactive: dose: 0.06 mg/kg/injection, schedule: Q01DX009 (ip), vehicle: Klucel (hydroxypropylcellulose) (HPC) 89 % of control | dose: 0.12 mg/kg/injection, schedule: Q01DX009 (ip), vehicle: Klucel (hydroxypropylcellulose) (HPC) 93 % of control | dose: 0.13 mg/kg/injection, schedule: Q01DX009 (ip), vehicle: acetone 103 % of control | dose: 0.25 mg/kg/injection, schedule: Q01DX009 (ip), vehicle: Klucel (hydroxypropylcellulose) (HPC) 90 % of control | dose: 0.25 mg/kg/injection, schedule: Q01DX009 (ip), vehicle: acetone 101 % of control | dose: 0.5 mg/kg/injection, schedule: Q01DX009 (ip), vehicle: Klucel (hydroxypropylcellulose) (HPC) 102 % of control | dose: 0.5 mg/kg/injection, schedule: Q01DX009 (ip), vehicle: acetone 110 % of control | dose: 1.0 mg/kg/injection, schedule: Q01DX009 (ip), vehicle: Klucel (hydroxypropylcellulose) (HPC) 96 % of control

CC(C)CC(N)C(=O)OCc1ccccc1 (stereo unspecified)
inactive: dose: 100.0 mg/kg/injection, schedule: Q04DX003 (ip), vehicle: saline 109 % of control | [8] 93 % of control | dose: 200.0 mg/kg/injection, schedule: Q04DX003 (ip), vehicle: saline 104 % of control | dose: 400.0 mg/kg/injection, schedule: Q01DX009 (ip), vehicle: saline 91 % of control | dose: 400.0 mg/kg/injection, schedule: Q04DX003 (ip), vehicle: saline 100 % of control

BrC1c2cccc3cccc(c23)C1Br (stereo unspecified)
inactive: dose: 6.25 mg/kg/injection, schedule: Q01DX009 (ip), vehicle: saline with Tween-80 116 % of control | [4] 113 % of control | [9] 124 % of control | [5] 121 % of control

c1ccc2c(CC[n+]3cccc(C4OCCO4)c3)c[nH]c2c1
inactive: dose: 12.5 mg/kg/injection, schedule: Q01DX009 (ip), vehicle: saline 94 % of control | [10] 100 % of control | [11] 100 % of control

CCC1(C)CC(=O)NC(=O)C1
inactive: dose: 0.93 mg/kg/injection, schedule: Q01DX009 (ip), vehicle: saline 110 % of control | dose: 1.87 mg/kg/injection, schedule: Q01DX009 (ip), vehicle: saline 97 % of control | dose: 3.75 mg/kg/injection, schedule: Q01DX009 (ip), vehicle: saline 110 % of control | dose: 7.5 mg/kg/injection, schedule: Q01DX009 (ip), vehicle: saline 107 % of control | dose: 15.0 mg/kg/injection, schedule: Q01DX009 (ip), vehicle: saline 107 % of control

NC(N)=Nc1ccc(C(=O)Oc2ccc([N+](=O)[O-])cc2[N+](=O)[O-])cc1
inactive: [12] 97 % of control | [13] 91 % of control

c1ccc(Cc2ccccc2)cc1
inactive: [6] 89 % of control

O=CN(c1ccccc1)c1ccccc1
inactive: dose: 50.0 mg/kg/injection, schedule: Q01DX009 (ip), vehicle: other 100 % of control | dose: 100.0 mg/kg/injection, schedule: Q01DX009 (ip), vehicle: other 100 % of control | dose: 200.0 mg/kg/injection, schedule: Q01DX009 (ip), vehicle: other 105 % of control | dose: 400.0 mg/kg/injection, schedule: Q01DX009 (ip), vehicle: other 97 % of control

Cc1cc(N)c2cc(NC(=O)CCCCCCCCC(=O)Nc3ccc4nc(C)cc(N)c4c3)ccc2n1
inactive: dose: 3.12 mg/kg/injection, schedule: Q01DX009 (ip), vehicle: Klucel (hydroxypropylcellulose) (HPC) 89 % of control | dose: 6.25 mg/kg/injection, schedule: Q01DX009 (ip), vehicle: Klucel (hydroxypropylcellulose) (HPC) 87 % of control and 91 % of control | dose: 12.5 mg/kg/injection, schedule: Q01DX009 (ip), vehicle: Klucel (hydroxypropylcellulose) (HPC) 100 % of control | [12] 95 % of control and 107 % of control | [13] 95 % of control and 99 % of control

[Cl][Pt+2][Cl].[NH-]c1cc(Cl)c(Cl)cc1[NH-]
inactive: dose: 40.0 mg/kg/injection, schedule: Q01DX009 (ip), vehicle: saline with Tween-80 114 % of control | dose: 80.0 mg/kg/injection, schedule: Q01DX009 (ip), vehicle: saline with Tween-80 118 % of control | dose: 320.0 mg/kg/injection, schedule: Q01DX009 (ip), vehicle: saline with Tween-80 113 % of control

Cc1cc2ccc(OC(=O)c3ccc(N=C(N)N)cc3)cc2oc1=O
inactive: [4] 91 % of control | [9] 100 % of control | [6] 86 % of control | dose: 100.0 mg/kg/injection, schedule: Q04DX003 (ip), vehicle: saline with Tween-80 92 % of control | dose: 200.0 mg/kg/injection, schedule: Q04DX003 (ip), vehicle: saline with Tween-80 95 % of control | dose: 400.0 mg/kg/injection, schedule: Q04DX003 (ip), vehicle: saline with Tween-80 95 % of control

CCO/C=C1\SC(=S)N(c2ccc(C(=O)O)cc2)C1=O
inactive: [4] 107 % of control | [9] 115 % of control | [5] 110 % of control

O=C(CC(NC(=O)OCc1ccccc1)C(=O)O)OCc1ccccc1 (stereo unspecified)
inactive: [9] 93 % of control | [5] 104 % of control | [1] 102 % of control | [6] 102 % of control | [2] 106 % of control | [7] 87 % of control

CCC(=O)c1cc([N+](=O)[O-])ccc1NC(C)=O
inactive: [1] 101 % of control | [2] 107 % of control | [3] 109 % of control

Cc1cccc(C)c1C1=NCCN1
inactive: [4] 95 % of control | [9] 95 % of control | [5] 93 % of control

c1ccc(OP2OCCO2)cc1
inactive: [10] 88 % of control | [11] 100 % of control | dose: 100.0 mg/kg/injection, schedule: Q01DX009 (ip), vehicle: saline 105 % of control | [8] 91 % of control

O=C(O)C(c1ccccc1)C1CCCC1 (stereo unspecified)
inactive: [4] 109 % of control | [9] 111 % of control | [5] 94 % of control and 106 % of control

CC(=O)NC(Cc1cc(I)c(OC(C)=O)c(I)c1)C(=O)O (stereo unspecified)
inactive: [5] 100 % of control | [6] 97 % of control | [7] 90 % of control

O=C(Nc1ccc(F)cc1)C(c1ccccc1)c1ccccc1
inactive: [4] 98 % of control | [9] 92 % of control | [5] 89 % of control

CCC(C)C1NC(=O)C(NC(=O)c2c3nc4c(C(=O)NC5C(=O)NC(C(C)C)C(=O)N6CCCC6C(=O)N(C)CC(=O)N(C)C(C(C)C)C(=O)OC5C)ccc(C)c4oc-3c(C)c(=O)c2N)C(C)OC(=O)C(C(C)C)N(C)C(=O)CN(C)C(=O)C2CCCN2C1=O (stereo unspecified) (I: TIP[Sar][NMeV] / II: TVP[Sar][NMeV]; ester I:1-I:C, II:1-II:C; linker I:N-II:N via Actinocin(1to9); configuration not given here)
inactive: dose: 0.2 mg/kg/injection, schedule: Q01DX001 (ip), vehicle: water 116 % of control | dose: 12.5 micrograms/kg/injection, schedule: Q01DX009 (ip), vehicle: water 117 % of control | dose: 25.0 micrograms/kg/injection, schedule: Q01DX009 (ip), vehicle: water 116 % of control | dose: 75.0 micrograms/kg/injection, schedule: Q04DX003 (ip), vehicle: water 119 % of control

Cc1cc(C)c(COCc2cc(C)c(C)cc2C)cc1C
inactive: [14] 95 % of control | [15] 95 % of control

O=CNC(c1ccccc1)(c1ccccc1)c1ccccc1
inactive: [1] 97 % of control | [2] 94 % of control | [3] 94 % of control

CC1(C)C=CC2=C(O1)C(=O)c1ccccc1C2=O
inactive: dose: 25.0 mg/kg/injection, schedule: Q01DX009 (ip), vehicle: water 104 % of control | [14] 99 % of control | [15] 93 % of control | dose: 200.0 mg/kg/injection, schedule: Q01DX009 (ip), vehicle: water 91 % of control

Cc1cnc2c(NC(=O)CCl)nn(C)c2n1
inactive: [13] 103 % of control | [1] 101 % of control
